Experimental data: US8697630B2, “Method for lowering insulin resistance” (Nestec S.A., priority 2005, dated 2014)

What was measured:
[1] = target: T1, protein tyrosine phosphatase-1B (Homo sapiens, UniProt P18031); details: cited from earlier work
T1 sequence (P18031 1-435): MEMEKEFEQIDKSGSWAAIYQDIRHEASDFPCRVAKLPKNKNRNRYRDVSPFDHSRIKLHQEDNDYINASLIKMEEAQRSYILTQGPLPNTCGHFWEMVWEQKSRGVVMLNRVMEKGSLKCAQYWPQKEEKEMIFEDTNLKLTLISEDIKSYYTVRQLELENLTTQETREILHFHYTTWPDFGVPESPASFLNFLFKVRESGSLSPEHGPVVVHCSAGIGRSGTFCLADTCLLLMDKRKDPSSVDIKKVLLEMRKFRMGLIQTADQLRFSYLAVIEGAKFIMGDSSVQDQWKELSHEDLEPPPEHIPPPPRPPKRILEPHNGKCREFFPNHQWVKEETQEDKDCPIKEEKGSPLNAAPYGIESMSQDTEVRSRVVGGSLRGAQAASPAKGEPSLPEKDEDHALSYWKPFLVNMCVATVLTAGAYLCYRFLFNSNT

glucose transporter = target: T2, glucose transporter (Homo sapiens, UniProt P11166); details: cited from earlier work
T2 construct: various catechins tested on glucose transport from erythrocytes
T2 sequence (P11166 1-492): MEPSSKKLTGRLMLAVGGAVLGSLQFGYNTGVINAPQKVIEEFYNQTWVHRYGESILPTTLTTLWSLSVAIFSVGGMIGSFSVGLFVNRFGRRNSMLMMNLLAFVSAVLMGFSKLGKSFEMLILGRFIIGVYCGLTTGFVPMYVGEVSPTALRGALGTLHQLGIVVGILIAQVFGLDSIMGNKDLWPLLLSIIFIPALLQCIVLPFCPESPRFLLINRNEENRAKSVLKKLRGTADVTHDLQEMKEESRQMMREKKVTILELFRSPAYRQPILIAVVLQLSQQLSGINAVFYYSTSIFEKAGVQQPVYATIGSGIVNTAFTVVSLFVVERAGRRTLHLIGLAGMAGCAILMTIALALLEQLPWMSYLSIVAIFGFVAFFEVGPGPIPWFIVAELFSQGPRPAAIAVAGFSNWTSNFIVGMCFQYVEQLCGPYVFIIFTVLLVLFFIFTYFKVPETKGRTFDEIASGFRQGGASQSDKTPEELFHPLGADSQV

[2] = 1.5 mmole ingested, cited from earlier work
adults = details: estimated; cited from earlier work
healthy subjects = details: 50 g; cited from earlier work
diabetic subjects = details: cited from earlier work; for plasma glucose peak level / time of plasma glucose peak: diabetic subjects; for change in insulin concentration: in vivo
alloxan diabetic rats = details: after six weeks; extract 100 mg/kg; cited from earlier work
3T3-L1 cells = details: 240 nmol/L; cited from earlier work
ApoE (−/−) mice = assay: Study 14: plasma total cholesterol, retinol, tocopherol; format: in vivo; details: 0.5 g/kg in 0.08% cholesterol diet vs same diet without statin; 14 weeks
Excerpt: The objective of this study was to investigate the effect of a statin (Mevacor) on cholesterol levels. Each of three groups of ApoE (−/−) mice was fed one of three diets, each diet containing a different cholesterol level (i.e., 0, 0.4, and 0.8 g/kg). A fourth group was fed the diet containing 0.8 g/kg of cholesterol with the further inclusion of 0.5 g/kg of a statin (i.e., Mevacor).

[3] = tested on: STZ-induced diabetic rats; details: following intravenous insulin tolerance testing; cited from earlier work
Type 2 diabetics = details: cited from earlier work
Wild Type C57BL/6J mice = assay: Study 2/5: increasing 18:2 PUFA, insulin sensitivity; format: in vivo; details: 18:2 at 2%, 4%, 6% en; WT mice
Excerpt: Studies 2 and 5 were combined (n=18) where we compared TYPE B Leptr (−/−) (Study2) with the Wild Type mouse (Study 5) used in the backcross for Leptr (−/−), i.e., C57BL/6J. Here, we also examined the effects of food restriction on TYPE B (which over eat like TYPE A because neither have leptin receptors) and added the design of increasing 18:2 PUFA (increments at 2%, 4%, 6% en) while assessing the insulin sensitivity response. […] They had lower glucose than TYPE A, better insulin testing, yet became obese and insulin resistant, glucose intolerant, etc. […] This was the second clue (after n 3 FA in Study 1) that the type and mass of fatty acid intake can have a big influence on mouse insulin dynamics.

Zucker fa/fa rats = details: 100 mg/kg for 3-weeks; vs control obese rats; cited from earlier work

## methylhydroxychalcone polymer [MHCP]
[1]
  inhibition of protein tyrosine phosphatase-1B: inhibits

## O=C(O[C@@H]1Cc2c(O)cc(O)cc2O[C@@H]1c1cc(O)c(O)c(O)c1)c1cc(O)c(O)c(O)c1 [EGCG, epigallocatechin gallate]
Glucose transporter
  increase of affinity for the glucose transporter over EGC: 2 to 4 orders of magnitude
[2]
  Peak maximum: 1.3 μmol. 1-1
  detection in the urine: not detected
[2]; ten healthy volunteers
  elimination T1/2: 3.9 h

## OC[C@H]1O[C@H](OC[C@H]2OC(O)(CO)[C@@H](O)[C@@H]2O)[C@H](O)[C@@H](O)[C@@H]1O (stereo partly shown) [isomaltulose]
adults
  minimum effect dose (mental concentration): more than 5 g
Healthy subjects
  blood glucose peak: 110.9 ± 4.9 mg/dL
  time of blood glucose peak: 60 min
Diabetic subjects
  plasma glucose peak level: 195 ± 14 mg/dL
  time of plasma glucose peak: 120 min
  change in insulin concentration: 41.1 ± 7.4 µU/mL

## insulin: insulin
Alloxan diabetic rats
  decrease in fasting blood glucose: -183.1 mg/dL
3T3-L1 cells
  greatest glucose uptake relative to maximum uptake observed with BE: 2.7 times

## CC[C@H](C)C(=O)O[C@H]1C[C@@H](C)C=C2C=C[C@H](C)[C@H](CC[C@@H]3C[C@@H](O)CC(=O)O3)[C@H]21 [statin]
ApoE (−/−) mice
  liver, aortal, and plasma cholesterol levels: significant reduction

## O=C(O)CCCCC1CCSS1 (stereo not shown) [LA, Lipoic acid]
[3]
  reduction in the area under the glucose curve: 13%
Type 2 diabetics; 1200 mg LA (oral) for 4-wks
  reduction of lactate and pyruvate after oral glucose loading: 45%
Type 2 diabetics; 600, 1200 and 1800 mg/d oral
  improvement of insulin sensitivity: 17%
Type 2 diabetics; given as 3 doses of 600 mg
  oral dose reported to be safe: up to 1800 mg/d

## OC[C@H]1O[C@@](CO)(O[C@H]2O[C@H](CO)[C@@H](O)[C@H](O)[C@H]2O)[C@@H](O)[C@@H]1O [sucrose]
Healthy subjects
  blood glucose peak: 143.3 ± 8.8 mg/dL
  time of blood glucose peak: 30 min
Diabetic subjects
  plasma glucose peak level: 237 ± 12 mg/dL
  time of plasma glucose peak: ≤ 60 min
  change in insulin concentration: 59.3 ± 12 µU/mL

## CCCCC/C=C\C/C=C\CCCCCCCC(=O)O [18:2, linoleic acid]
Wild Type C57BL/6J mice
  sensitivity to insulin: appeared to increase sensitivity to insulin

## C[C@@H]([C@H](C)O)[C@H](N)C(=O)O [ID-1101, 4-hydroxyisoleucine]
Zucker fa/fa rats
  hyperinsulinemia: reduced hyperinsulinemia
